Among the data in patent US8389550B2, “Isoxazoles / O-pyridines with ethyl and ethenyl linker” (Hoffmann-La Roche Inc., priority 2009, dated 2013) are Ki values, retold here.

In this test the target is T1, human GABA A α5 receptor (α5β3γ2) (Homo sapiens, UniProt P18507+P31644).
T1 construct: expressed in transfected cells; host or cells: HEK293 cells, transiently transfected; membranes prepared from cell pellets
Put plainly: [3H]flumazenil competition binding assay, HEK293 cells expressing human receptors. As to conditions: displacement of [3H]flumazenil (0.5 nM); HEK293 cells transiently expressing human α5β3γ2; means of two determinations; read-out: hKi GABA A α5. The procedure: Membrane Preparation and Binding Assay
The affinity of compounds at GABA A receptor subtypes was measured by competition for [3H]flumazenil (85 Ci/mmol; Roche) binding to HEK293 cells expressing rat (stably transfected) or human (transiently transfected) receptors of composition α1β3γ2, α2β3γ2, α3β3γ2 and α5β3γ2.
Cell pellets were suspended in Krebs-tris buffer (4.8 mM KCl, 1.2 mM CaCl2, 1.2 mM MgCl2, 120 mM NaCl, 15 mM Tris; pH 7.5; binding assay buffer), homogenized by polytron for ca. 20 sec on ice and centrifuged for 60 min at 4° C. (50000 g; Sorvall, rotor: SM24=20000 rpm). The cell pellets were resuspended in Krebs-tris buffer and homogenized by polytron for ca. 15 sec on ice. Protein was measured (Bradford method, Bio-Rad) and aliquots of 1 mL were prepared and stored at −80° C.
Radioligand binding assays were carried out in a volume of […] (96-well plates) which contained […] of cell membranes, [3H]flumazenil at a concentration of 1 nM for α1, α2, α3 subunits and 0.5 nM for α5 subunits and the test compound in the range of […]. Nonspecific binding was defined by 10^−5 M diazepam and typically represented less than 5% of the total binding. Assays were incubated to equilibrium for 1 hour at 4° C. and harvested onto GF/C uni-filters (Packard) by filtration using a Packard harvester and washing with ice-cold wash buffer (50 mM Tris; pH 7.5). After drying, filter-retained radioactivity was detected by liquid scintillation counting. Ki values were calculated using Excel-Fit (Microsoft) and are the means of two determinations.
Representative test results, obtained by the above described assay measuring binding affinity to HEK293 cells expressing human (h) receptors, are shown in table 1 below: […]

On to `CCCCc1noc(C)c1/C=C/c1ccc(C(=O)NC(C)C)cn1` [Example 8, 6-[(E)-2-(3-Butyl-5-methyl-isoxazol-4-yl)-vinyl]-N-isopropyl-nicotinamide], for which the Ki stood at 18.6 nM.

Regarding `Cc1onc(-c2ccccc2)c1/C=C/c1ccc(C(=O)NC2CCOCC2)cn1` [Example 3, 6-[(E)-2-(5-Methyl-3-phenyl-isoxazol-4-yl)-vinyl]-N-(tetrahydro-pyran-4-yl)-nicotinamide], the Ki stood at 6 nM. As to `CCCCc1noc(C)c1/C=C/c1ccc(C(=O)NC(C)CO)cn1` (stereo not drawn) [Example 10, 6-[(E)-2-(3-Butyl-5-methyl-isoxazol-4-yl)-vinyl]-N-(2-hydroxy-1-methyl-ethyl)-nicotinamide], the Ki was 8.2 nM. The value for `CCCCc1noc(C)c1/C=C/c1ccc(C(=O)N[C@H](C)CO)cn1` [Example 13, 6-[(E)-2-(3-Butyl-5-methyl-isoxazol-4-yl)-vinyl]-N—((R)-2-hydroxy-1-methyl-ethyl)-nicotinamide] was 12.2 nM; that for `CCCCc1noc(C)c1/C=C/c1ccc(C(=O)NC2CCOC2)cn1` (stereo not drawn) [Example 9, 6-[(E)-2-(3-Butyl-5-methyl-isoxazol-4-yl)-vinyl]-N-(tetrahydro-furan-3-yl)-nicotinamide] was 8.9 nM. The value for `Cc1onc(-c2ccccc2)c1/C=C/c1ccc(C(=O)O)cn1` [Example 6, 6-[(E)-2-(5-Methyl-3-phenyl-isoxazol-4-yl)-vinyl]-nicotinic acid] was 38.6 nM; that for `CCCCc1noc(C)c1/C=C/c1ccc(C(=O)OC)cn1` [Example 7, 6-[(E)-2-(3-Butyl-5-methyl-isoxazol-4-yl)-vinyl]nicotinic acid methyl ester] was 8.1 nM. The value for `Cc1onc(-c2ccccc2)c1/C=C/c1ccc(C(=O)NC(C)CO)cn1` (stereo not drawn) [Example 5, N-(2-Hydroxy-1-methyl-ethyl)-6-[(E)-2-(5-methyl-3-phenyl-isoxazol-4-yl)-vinyl]-nicotinamide] was 2.9 nM.

On to `CCCCc1noc(C)c1/C=C/c1ccc(C(=O)NC2CCOCC2)cn1` [Example 12, 6-[(E)-2-(3-Butyl-5-methyl-isoxazol-4-yl)-vinyl]-N-(tetrahydro-pyran-4-yl)-nicotinamide], for which the Ki came out at 12.9 nM. The value for `COC(=O)c1ccc(/C=C/c2c(-c3ccccc3)noc2C)nc1` [Example 1, 6-[(E)-2-(5-Methyl-3-phenyl-isoxazol-4-yl)-vinyl]nicotinic acid methyl ester] was 13.9 nM. The result for `CCCCc1noc(C)c1CCc1ccc(C(=O)NC(C)CO)cn1` (stereo not drawn) [Example 17, 6-[2-(3-Butyl-5-methyl-isoxazol-4-yl)-ethyl]-N-(2-hydroxy-1-methyl-ethyl)-nicotinamide] reads 49.4 nM; that for `Cc1onc(-c2ccccc2)c1CCc1ccc(C(=O)NC(C)C)cn1` [Example 16, N-Isopropyl-6-[2-(5-methyl-3-phenyl-isoxazol-4-yl)-ethyl]-nicotinamide], 57.6 nM; that for `CCCCc1noc(C)c1/C=C/c1ccc(C(=O)NC(CO)CO)cn1` [Example 15, 6-[(E)-2-(3-Butyl-5-methyl-isoxazol-4-yl)-vinyl]-N-(2-hydroxy-1-hydroxymethyl-ethyl)-nicotinamide], 5.3 nM.

`CCCCc1noc(C)c1/C=C/c1ccc(C(=O)N[C@@H](C)CO)cn1` [Example 14, 6-[(E)-2-(3-Butyl-5-methyl-isoxazol-4-yl)-vinyl]-N—((S)-2-hydroxy-1-methyl-ethyl)-nicotinamide]: the Ki came out at 14.1 nM. For the compound `CCCCc1noc(C)c1/C=C/c1ccc(C(=O)NCC(C)(C)O)cn1` [Example 11, 6-[(E)-2-(3-Butyl-5-methyl-isoxazol-4-yl)-vinyl]-N-(2-hydroxy-2-methyl-propyl)-nicotinamide], the Ki came to 16.3 nM.

Take `Cc1onc(-c2ccccc2)c1/C=C/c1ccc(C(=O)NCCO)cn1` [Example 4, N-(2-Hydroxy-ethyl)-6-[(E)-2-(5-methyl-3-phenyl-isoxazol-4-yl)-vinyl]-nicotinamide]: the Ki was determined as 2 nM. The value for `CCCCc1noc(C)c1CCc1ccc(C(=O)NC2CCOC2)cn1` (stereo not drawn) [Example 18, 6-[2-(3-Butyl-5-methyl-isoxazol-4-yl)-ethyl]-N-(tetrahydro-furan-3-yl)-nicotinamide] was 58.6 nM; that for `Cc1onc(-c2ccccc2)c1/C=C/c1ccc(C(=O)NC(C)C)cn1` [Example 2, N-Isopropyl-6-[(E)-2-(5-methyl-3-phenyl-isoxazol-4-yl)-vinyl]-nicotinamide] was 5 nM.
